SMILES strings stand for the structures. Where two headings read alike, the source gives them in different places.

One test deals with 1405R3. Nature of the test: High-throughput drug screen, CellTiter-Glo viability, 72 h. The class given is cell-based, human. On the set-up: AUC: scale not given here. As to conditions: 1405R3 DSRT analysis; for AUC: area under the dose-response curve; for MIN: lower asymptote of fitted dose-response curve; for SLOPE: slope of fitted dose-response curve; for EC50: fitted dose-response curve, Min.Conc.tested 1, Max.Conc.tested 10000, 72 h, read-out: EC50. As for the experimental part:
(§1) The cells were seeded and incubated with a gradient of concentrations of drugs for 72 h, after which the cell viability was assessed (Supplementary Fig. 1a). The drug library primarily comprises epigenetic drugs, including HDAC inhibitors, DNA methyltransferase inhibitors, and histone demethylase inhibitors, as well as conventional chemotherapies and kinase inhibitors (Supplementary Fig. 1b and Supplementary Table 1). […] To identify novel therapeutics against CCA, we conducted a high-throughput screen employing PerkinElmer’s integrated robotic Explorer G3 workstations. […] Following dilution to five specified concentrations, drugs were dispensed into 96-well plates in the sequence detailed in Supplementary Fig. 1a. The CCA cell lines were subsequently plated in 384-well plates at a density of 3000 cells per well in a 20 μL total volume. After a 24-h incubation, the compounds were added to the wells and incubated for 72 h. We then quantified cell viability via the CellTiter-Glo luminescent assay according to the manufacturer’s protocol. Signal detection was carried out on a Synergy2 plate reader operated by Gen5 software (BioTek). For data processing, the raw luminescence data were processed through the Breeze pipeline for curve fitting, yielding quality control metrics (e.g., Z-factors) and drug response parameters (AUC and DSS), as adapted from previous work.[54] Drug responses were evaluated on the basis of the drug sensitivity score (DSS), and a cutoff of ≥10 was used to define efficacy. The complete drug library and screening dataset are available in Supplementary Tables 1-3.
(§2) Supplementary Fig. 1. A high-throughput drug screen to identify drugs targeting CCA. a Schematic representation of the drug screening protocol. […] Each drug was tested at five different concentrations (10, 1, 0.1, 0.01, and 0.001 μM), and each treatment was replicated twice. b Classification of drugs used for screening.
A general note: Cellular ATP, detected with luciferase, serves as a proxy for viable cell number.

A further test has as its system 783C-6. The test is described as above. Conditions: for AUC: area under the dose-response curve; for EC50: Homo sapiens, 72 h, read-out: EC50. On the set-up: AUC: scale not given here. The class given is cell-based, human. The protocol: as §1, §2
Setting [1] is: 783C-6 DSRT analysis, DSS calculated from the dose-response curve.
[2] abbreviates: 783C-6 DSRT analysis, MIN of the fitted dose-response curve.
The mark [3] stands for this setting: 783C-6 DSRT analysis, slope of the fitted dose-response curve.
[4] abbreviates: 783C-6 cells, DSS of DSRT analysis.
Setting [5] is: 783C-6 cells, minimum of dose-response curve.
[6] abbreviates: 783C-6 cells, slope of fitted dose-response curve.

For `CC[C@H](C)n1cc(C)c2c(C(=O)NCc3c(C)cc(C)[nH]c3=O)cc(-c3ccc(N4CCNCC4)nc3)cc21` [GSK126], the DSS with 1405R3 (DSS) and in the test with 783C-6 (setting [1]) was 0 each time. For the same compound, the AUC in the test on 1405R3 came out at 22.4; in the test with 783C-6 (783C-6 DSRT analysis), 2.7. Moreover, the MIN was found to be 85.6 in the test on 1405R3 and 91 in the test on 783C-6 (setting [2]). The SLOPE in the test on 1405R3 is -0.1; in the test with 783C-6 (setting [3]), -1.

Take `COc1cc2c(Oc3ccc4[nH]c(C)cc4c3F)ncnc2cc1OCCCN1CCCC1` [Cediranib]: the DSS with 1405R3 (DSS) is recorded as 5.6; in the test with 783C-6 (setting [1]), 2.4. For the same compound, the AUC in the test on 1405R3 was determined as 50.5; with 783C-6 (783C-6 DSRT analysis), 23.3. In addition, the MIN is listed as 9.6 with 1405R3 and 57.8 in the test on 783C-6 (setting [2]). Moreover, the EC50 with 1405R3 (Homo sapiens, CellTiter-Glo) stood at 2810 nM; in the test with 783C-6, 2850 nM.

Consider `COc1ccccc1S(=O)(=O)Nc1ccc2c(c1)CN(C)C(=O)N2` [PFI-1], for which the concentration giving a half-maximal response (EC50) with 1405R3 (CellTiter-Glo viability, GI50) came to 1350 nM. Moreover, the values for the AUC in the test with 1405R3 and in the test with 783C-6 (783C-6 cells) were 38.8 and 7.2, respectively. Besides, the values for the DSS in the test on 1405R3 (drug sensitivity score) and in the test on 783C-6 (setting [4]) were 4.4 and 0, respectively. In addition, the MIN with 1405R3 worked out at 55.4; in the test on 783C-6 (setting [5]) it was 94.7. In addition, the SLOPE in the test on 1405R3 and in the test with 783C-6 (setting [6]) was -2.5 in each case.

Consider `CN(C)Cc1ccc(S(=O)(=O)n2ccc(/C=C/C(=O)NO)c2)cc1` [Resminostat], for which the AUC stood at 45 in the test on 1405R3 and 39.6 in the test on 783C-6 (783C-6 cells). Besides, the DSS in the test on 1405R3 (drug sensitivity score) was 5; in the test on 783C-6 (setting [4]) it was 4.3. Further, the MIN stood at 20.3 in the test with 1405R3 and 25.4 in the test on 783C-6 (setting [5]). In addition, the EC50 was found to be 2770 nM in the test on 1405R3 (Homo sapiens, CellTiter-Glo viability, GI50) and 3000 nM with 783C-6.

With `O=C(NO)c1ccc(CC(=O)N(CCO)c2ccccc2)cc1` [HPOB], the DSS in the test with 1405R3 (DSS) and in the test with 783C-6 (setting [1]) was 0 each time. In addition, the AUC with 1405R3 came out at 0.1; in the test on 783C-6 (783C-6 DSRT analysis), 0.4. Moreover, the MIN in the test on 1405R3 turned out to be 100; in the test with 783C-6 (setting [2]), 98.7. In addition, the SLOPE is on record as -0.1 in the test with 1405R3 and -1 with 783C-6 (setting [3]).

Turning to `CN1CCc2c(c3ccccc3n2Cc2ccc(C(=O)NO)cc2)C1.O=C(O)C(F)(F)F` [Tubastatin A TFA], the AUC in the test on 1405R3 is on record as 17.4; in the test on 783C-6 (783C-6 cells), 24.4. Further, the DSS in the test on 1405R3 (drug sensitivity score) and with 783C-6 (setting [4]) was 0 throughout. Also, the results for the MIN with 1405R3 and with 783C-6 (setting [5]) were 88.8 and 86.5, respectively. In addition, the SLOPE in the test with 1405R3 and in the test with 783C-6 (setting [6]) was -0.1 in each case.

For the compound `O=C(NCC1(c2nc(-c3ccccc3)cs2)CCOCC1)c1cccc(-c2noc(C(F)(F)F)n2)c1` [TMP269], the AUC in the test with 1405R3 was 24.8; in the test on 783C-6 (783C-6 cells) it was 50.1. Besides, the DSS in the test with 1405R3 (drug sensitivity score) came to 0; in the test on 783C-6 (setting [4]), 2.5. The MIN with 1405R3 was found to be 87; in the test with 783C-6 (setting [5]), 84.2. The SLOPE is listed as -0.2 in the test with 1405R3 and -0.3 with 783C-6 (setting [6]).

With `CCNC(=O)C[C@@H]1N=C(c2ccc(Cl)cc2)c2cc(OC)ccc2-n2c(C)nnc21` [I-BET-762], the DSS is listed as 6 with 1405R3 (DSS) and 0 with 783C-6 (setting [1]). Also, the MIN with 1405R3 is given as 42; in the test on 783C-6 (setting [2]) it was 97. Besides, the SLOPE in the test with 1405R3 and with 783C-6 (setting [3]) was -2.5 in each case.

In the case of `O=C(O)[C@]1(Cc2cccc(Nc3nccs3)n2)CC[C@@H](Oc2cccc(Cl)c2F)CC1` [MK-5108], the DSS with 1405R3 (DSS) was 0; in the test with 783C-6 (setting [1]) it was 4.3. Moreover, the figures for the AUC in the test with 1405R3 and with 783C-6 (783C-6 DSRT analysis) were 0.5 and 61.3, respectively. Besides, the MIN was found to be 98.2 with 1405R3 and 74.1 in the test with 783C-6 (setting [2]). For the same compound, the EC50 in the test on 783C-6 was found to be 22.8 nM.

On to `CCOC(=O)NCCCC(=O)NCCc1ccccc1` [Santacruzamate A], for which the AUC with 1405R3 came out at 1; in the test with 783C-6 (783C-6 cells), 2.2. In addition, the DSS with 1405R3 (drug sensitivity score) and with 783C-6 (setting [4]) was 0 each time. Moreover, the MIN amounted to 92 in the test on 1405R3 and 94.7 in the test with 783C-6 (setting [5]). Besides, the SLOPE is -2.5 in the test with 1405R3 and -0.7 in the test with 783C-6 (setting [6]).

What is called EC50 is the concentration that produces a half-maximal response.

The record behind these values is article PMC12518634, “The noncanonical function of liver-type phosphofructokinase potentiates the efficacy of HDAC inhibitors in cancer” (Signal Transduction and Targeted Therapy, 2025).
